Measurements reported in patent US8192962B2, “Processes for detecting toxic substances” (Daikin Industries, Ltd., priority 2001, dated 2012).

Tested on: Detoxification protein genes
Test: DNA chip mRNA expression in yeast, detoxification protein genes (Table 8)
Assay type: cell-based, Saccharomyces cerevisiae S288C
Procedure: Yeast (Saccharomyces cerevisiae S288C (α SUC2mal mel gap2 CUP1)) were incubated at 25° C. on YPD medium (yeast extract 1%, polypepton 2%, glucose 2%). One of toxic chemical substances was added to the cells at logarithmic growth phase, and the cells were further incubated for two hours. Cells were cultured without any chemical substance in the same condition, and were used as control. Concentrations of the chemical substances were defined to inhibit the growth of the yeast but not lead to death.
After completion of the incubation, the culture was centrifuged to collect the cells. To the cells, sodium acetate buffer (50 mM sodium acetate, 10 mM EDTA, 1% SDS) was added, and the mixture was shaken at 65° C. for five minutes, followed by returning to room temperature, and obtaining the supernatant, of which the procedures were repeated two times. To the supernatant, ½ amount of a solution of phenol/chloroform was added, and the mixture was centrifuged to give a supernatant, which was added with an equal amount of chloroform, and the mixture was centrifuged to give a supernatant. To the supernatant, an equal amount of isopropanol containing 0.3 M sodium acetate was added, and the mixture was allowed to stand at room temperature for 30 minutes, after which the mixture was centrifuged to give a sediment of the whole RNAs. Seventy % ethanol was added to the sediment, and the mixture was again centrifuged to give a sediment, which was then dried and dissolved in water. mRNA was isolated from the whole RNAs as followings. In view of the fact that a poly A chain is attached to the 3′ terminus of mRNA, a polynucleotide having a poly T structure which was immobilized on the surface of latex beads was used to trap the mRNA, and then the mRNA was washed and eluted with spine column (Oligotex-dT30<Super>mRNA Purification Kit, Takara). Reverse transcription of the mRNA was conducted with a reverse transcriptase (Super Script II Reverse Transcriptase; catalogue No. 18064-014, GibcoBRL) using fluorescence-labeled nucleotides to give cDNAs that were introduced with Cy3-dUTP or Cy5-dUTP during the reverse transcription.
The labeled cDNAs were dissolved in TE buffer (10mM Tris-HCl/1 mM EDTA, pH8.0), and the solution was dropped on the DNA chip containing the whole genes of yeast (DNA Chip Research Inc. Japan) so that the cDNAs were hybridized on the DNA chip at 65° C. for over 12 hours. The fluoresces intensity of the DNA chip was read with a scanner, and the ratio relative to the fluorescence intensity resulting from the absence of chemical substance was estimated as the following, which is shown in Tables 1 to 9: […]

Question: Which results are given for `O=[N+]([O-])c1cc[n+]([O-])c2ccccc12` [(5), 4-nitroquinolin-N-oxide]?
Answer: The level of expressed mRNA in the presence of chemical substance/The level of expressed mRNA in the absence of chemical substance (yeast gene YBL064C): 0.8; The level of expressed mRNA in the presence of chemical substance/The level of expressed mRNA in the absence of chemical substance (yeast gene YBR008C): 0.9; The level of expressed mRNA in the presence of chemical substance/The level of expressed mRNA in the absence of chemical substance (yeast gene YBR145W): 1.1; The level of expressed mRNA in the presence of chemical substance/The level of expressed mRNA in the absence of chemical substance (yeast gene YBR244W): 1.7; The level of expressed mRNA in the presence of chemical substance/The level of expressed mRNA in the absence of chemical substance (yeast gene YBR293W): 0.8; The level of expressed mRNA in the presence of chemical substance/The level of expressed mRNA in the absence of chemical substance (yeast gene YCL035C): 1.5; The level of expressed mRNA in the presence of chemical substance/The level of expressed mRNA in the absence of chemical substance (yeast gene YCL069W): 0.9; The level of expressed mRNA in the presence of chemical substance/The level of expressed mRNA in the absence of chemical substance (yeast gene YCR083W): 1.6; The level of expressed mRNA in the presence of chemical substance/The level of expressed mRNA in the absence of chemical substance (yeast gene YDL100C): 1.0; The level of expressed mRNA in the presence of chemical substance/The level of expressed mRNA in the absence of chemical substance (yeast gene YDL168W): 1.2; The level of expressed mRNA in the presence of chemical substance/The level of expressed mRNA in the absence of chemical substance (yeast gene YDR256C): 1.2; The level of expressed mRNA in the presence of chemical substance/The level of expressed mRNA in the absence of chemical substance (yeast gene YDR453C): 0.7; The level of expressed mRNA in the presence of chemical substance/The level of expressed mRNA in the absence of chemical substance (yeast gene YDR513W): 0.9; The level of expressed mRNA in the presence of chemical substance/The level of expressed mRNA in the absence of chemical substance (yeast gene YDR538W): 1.0; The level of expressed mRNA in the presence of chemical substance/The level of expressed mRNA in the absence of chemical substance (yeast gene YEL027W): 1.0; The level of expressed mRNA in the presence of chemical substance/The level of expressed mRNA in the absence of chemical substance (yeast gene YEL065W): 1.4; The level of expressed mRNA in the presence of chemical substance/The level of expressed mRNA in the absence of chemical substance (yeast gene YER185W): 1.6; The level of expressed mRNA in the presence of chemical substance/The level of expressed mRNA in the absence of chemical substance (yeast gene YFL050C): 1.0; The level of expressed mRNA in the presence of chemical substance/The level of expressed mRNA in the absence of chemical substance (yeast gene YGL013C): 1.1; The level of expressed mRNA in the presence of chemical substance/The level of expressed mRNA in the absence of chemical substance (yeast gene YGL254W): 1.1; The level of expressed mRNA in the presence of chemical substance/The level of expressed mRNA in the absence of chemical substance (yeast gene YGR088W): 1.0; The level of expressed mRNA in the presence of chemical substance/The level of expressed mRNA in the absence of chemical substance (yeast gene YGR138C): 0.8; The level of expressed mRNA in the presence of chemical substance/The level of expressed mRNA in the absence of chemical substance (yeast gene YGR197C): 0.7; The level of expressed mRNA in the presence of chemical substance/The level of expressed mRNA in the absence of chemical substance (yeast gene YGR209C): 1.9; The level of expressed mRNA in the presence of chemical substance/The level of expressed mRNA in the absence of chemical substance (yeast gene YGR224W): 1.4; The level of expressed mRNA in the presence of chemical substance/The level of expressed mRNA in the absence of chemical substance (yeast gene YHL040C): 1.1; The level of expressed mRNA in the presence of chemical substance/The level of expressed mRNA in the absence of chemical substance (yeast gene YHL047C): 1.2; The level of expressed mRNA in the presence of chemical substance/The level of expressed mRNA in the absence of chemical substance (yeast gene YHR008C): 0.6; The level of expressed mRNA in the presence of chemical substance/The level of expressed mRNA in the absence of chemical substance (yeast gene YHR048W): 1.0; The level of expressed mRNA in the presence of chemical substance/The level of expressed mRNA in the absence of chemical substance (yeast gene YHR053C): 2.9; The level of expressed mRNA in the presence of chemical substance/The level of expressed mRNA in the absence of chemical substance (yeast gene YHR055C): 2.7; The level of expressed mRNA in the presence of chemical substance/The level of expressed mRNA in the absence of chemical substance (yeast gene YIR002C): 1.2; The level of expressed mRNA in the presence of chemical substance/The level of expressed mRNA in the absence of chemical substance (yeast gene YIR038C): 0.7; The level of expressed mRNA in the presence of chemical substance/The level of expressed mRNA in the absence of chemical substance (yeast gene YJL101C): 1.4; The level of expressed mRNA in the presence of chemical substance/The level of expressed mRNA in the absence of chemical substance (yeast gene YJR104C): 1.5; The level of expressed mRNA in the presence of chemical substance/The level of expressed mRNA in the absence of chemical substance (yeast gene YKL026C): 1.0; The level of expressed mRNA in the presence of chemical substance/The level of expressed mRNA in the absence of chemical substance (yeast gene YKL064W): 1.2; The level of expressed mRNA in the presence of chemical substance/The level of expressed mRNA in the absence of chemical substance (yeast gene YKR066C): 1.0; The level of expressed mRNA in the presence of chemical substance/The level of expressed mRNA in the absence of chemical substance (yeast gene YKR105C): 1.0; The level of expressed mRNA in the presence of chemical substance/The level of expressed mRNA in the absence of chemical substance (yeast gene YKR106W): 1.2; The level of expressed mRNA in the presence of chemical substance/The level of expressed mRNA in the absence of chemical substance (yeast gene YLL028W): 0.9; The level of expressed mRNA in the presence of chemical substance/The level of expressed mRNA in the absence of chemical substance (yeast gene YLL057C): 1.1; The level of expressed mRNA in the presence of chemical substance/The level of expressed mRNA in the absence of chemical substance (yeast gene YLL060C): 0.9; The level of expressed mRNA in the presence of chemical substance/The level of expressed mRNA in the absence of chemical substance (yeast gene YLR043C): 2.0; The level of expressed mRNA in the presence of chemical substance/The level of expressed mRNA in the absence of chemical substance (yeast gene YLR046C): 1.0; The level of expressed mRNA in the presence of chemical substance/The level of expressed mRNA in the absence of chemical substance (yeast gene YML028W): 1.6; The level of expressed mRNA in the presence of chemical substance/The level of expressed mRNA in the absence of chemical substance (yeast gene YML116W): 1.2; The level of expressed mRNA in the presence of chemical substance/The level of expressed mRNA in the absence of chemical substance (yeast gene YMR015C): 1.7; The level of expressed mRNA in the presence of chemical substance/The level of expressed mRNA in the absence of chemical substance (yeast gene YMR038C): 1.5; The level of expressed mRNA in the presence of chemical substance/The level of expressed mRNA in the absence of chemical substance (yeast gene YNL239W): 1.2; The level of expressed mRNA in the presence of chemical substance/The level of expressed mRNA in the absence of chemical substance (yeast gene YNL241C): 0.8; The level of expressed mRNA in the presence of chemical substance/The level of expressed mRNA in the absence of chemical substance (yeast gene YNL259C): 1.1; The level of expressed mRNA in the presence of chemical substance/The level of expressed mRNA in the absence of chemical substance (yeast gene YOL158C): 1.2; The level of expressed mRNA in the presence of chemical substance/The level of expressed mRNA in the absence of chemical substance (yeast gene YOR031W): 1.4; The level of expressed mRNA in the presence of chemical substance/The level of expressed mRNA in the absence of chemical substance (yeast gene YOR153W): 1.0; The level of expressed mRNA in the presence of chemical substance/The level of expressed mRNA in the absence of chemical substance (yeast gene YOR247W): 0.6; The level of expressed mRNA in the presence of chemical substance/The level of expressed mRNA in the absence of chemical substance (yeast gene YOR251C): 0.8; The level of expressed mRNA in the presence of chemical substance/The level of expressed mRNA in the absence of chemical substance (yeast gene YOR273C): 1.1; The level of expressed mRNA in the presence of chemical substance/The level of expressed mRNA in the absence of chemical substance (yeast gene YPL163C): 0.6; The level of expressed mRNA in the presence of chemical substance/The level of expressed mRNA in the absence of chemical substance (yeast gene YPR200C): 1.6
